Test results as given in US20240276986A1, “Compositions With Ethofumesate And A Safener” (BAYER AKTIENGESELLSCHAFT, priority 2021, published 2024).
Like-named read-outs stand apart in the source and are kept apart here.

Key:
[1] = tested on: cereral crops such as wheat or barley; assay: Own experiments, safening effect of mefenpyr-diethyl used with flufenacet; type: in vivo; conditions: used with flufenacet (WSSA group 15); cereal crops such as wheat or barley
[2] = tested on: soft winter wheat (TRZAW); assay: Field trial, crop injury in soft winter wheat after early post-emergence spray; type: in vivo, Triticum aestivum; conditions: post-emergence BBCH 11, 140 L/ha, ethofumesate 250 g/ha, combination 250 + 100 g/ha, visual rating vs untreated control
Description: (§1) In field trials the interaction of (i) ethofumesate and (ii) the safener mefenpyr-diethyl concerning cereal crop injury was investigated.
(§2) Plots of different verities of wheat and barley crops in the field were sprayed with an application volume of 140 L/ha with a handheld spray boom.
(§3) Application of the application spray compostions was carried out early in each case post-emergence at BBCH growth stage 11 (first leaf unfolded) of the respective wheat or barley crops.
The four different soft winter wheat (TRZAW) varieties tested were ARTHUR NICK, ELIXER, PISTOLO and RUBISKO.
(§4) The maximum crop damage and the final crop damage were in each case visually rated on a percentage scale in relation to the untreated control (100%=all plants dead, complete crop kill; 50%=green plant biomass reduced by 50%, and 0%=like control plot, no crop injury).
(§5) The main symptoms of crop damage observed were thinning and stunting.

winter barley (HORVW) = assay: Field trial, crop injury in winter barley after early post-emergence spray; type: in vivo, Hordeum vulgare; conditions: post-emergence BBCH 11, 140 L/ha, ethofumesate 250 g/ha, combination 250 + 100 g/ha, visual rating vs untreated control
Description: as §1, §2, §3
The three different winter barley (HORVW) varieties tested were CALIFORNIA, CIERZO and KWS ORBIT.
as §4, §5

barley and wheat = conditions: greenhouse studies; cited from earlier work
[3] = tested on: annual bluegrass (Poa annua L.); conditions: pre-emergence or early post-emergence at 0.8 to 4.5 kg/ha; Italian ryegrass seed fields; cited from earlier work
[4] = tested on: volunteer wheat (Triticum aestivum L.); conditions: cited from earlier work

Row | SMILES | safening effect [1] | Final crop damage in % ([2]; Variety ARTUR NICK) | Maximum crop damage in % ([2]; Variety ARTUR NICK) | Final crop damage in % ([2]; Variety ELIXER) | Maximum crop damage in % ([2]; Variety ELIXER) | Final crop damage in % ([2]; Variety PISTOLO) | Maximum crop damage in % ([2]; Variety PISTOLO) | Final crop damage in % ([2]; Variety RUBISKO) | Maximum crop damage in % ([2]; Variety RUBISKO) | Final crop damage in % (winter barley (HORVW); Variety CALIFORNIA) | Maximum crop damage in % (winter barley (HORVW); Variety CALIFORNIA) | Final crop damage in % (winter barley (HORVW); Variety CIERZO) | Maximum crop damage in % (winter barley (HORVW); Variety CIERZO) | Final crop damage in % (winter barley (HORVW); Variety KWS ORBIT) | Maximum crop damage in % (winter barley (HORVW); Variety KWS ORBIT) | susceptibility of barley and wheat to soil residues of ethofumesate relative to corn (barley and wheat) | control of annual bluegrass [3] | control of volunteer wheat ([4]; 1.7 kg/ha or more, wheat in the one- to three-leaf stage) | control of volunteer wheat ([4]; applied pre-emergence soon after planting or at the end of November to wheat in the four-leaf to four-tiller stage)
1 | CCOC(=O)C1=NN(c2ccc(Cl)cc2Cl)C(C)(C(=O)OCC)C1 (stereo not shown) [mefenpyr-diethyl, ethyl 1-(2,4-dichlorophenyl)-5-(ethoxycarbonyl)-5-methyl-2-pyrazoline-3-carboxylate] | does not have a safening effect | – | – | – | – | – | – | – | – | – | – | – | – | – | – | – | – | – | –
2 | CCOC1Oc2ccc(OS(C)(=O)=O)cc2C1(C)C (stereo not shown) [Ethofumesate, 2-ethoxy-2,3-dihydro-3,3-dimethylbenzofuran-5-yl methanesulfonate] | – | 11.6% | 16% | 28.3% | 63% | 14.0% | 24% | 13.7% | 30% | 12.5% | 25% | 19.7% | 28% | 25.0% | 45% | about 10 times | eliminated annual bluegrass | eliminated the wheat | not eliminated
